Reference: ChEMBL document CHEMBL5303573, “Mapping human microbiome drug metabolism by gut bacteria and their genes” (Nature, 2019)
Non-standard residues stand in square brackets, D forms with d. Residues, ends and D or L forms follow the SMILES beside them. pGlu = O=C1CC[C@@H](C(=O)O)N1; Thz = O=C(O)[C@@H]1CSCN1

Key:
[1] = The drug is tested on Parabacteroides merdae strain: ATCC43184 for biotransformation. The drug concentrations were measured before and after a 12-h incubation by liquid-chromatography-coupled mass spectrometry (LC–MS); conditions: 2 µM
[2] = The drug is tested on Clostridium asparagiforme strain: DSM15981 for biotransformation. The drug concentrations were measured before and after a 12-h incubation by liquid-chromatography-coupled mass spectrometry (LC–MS); type: ADME; design: dose 2 uM, timepoint 0 vs 12 hours; conditions: enterocloster asparagiformis, 2 µM
[3] = parabacteroides johnsonii, 12 h, 2 µM
Description: The drug is tested on Parabacteroides johnsonii strain: DSM18315 for biotransformation. The drug concentrations were measured before and after a 12-h incubation by liquid-chromatography-coupled mass spectrometry (LC–MS)

[4] = The drug is tested on Ruminococcus lactaris strain: ATCC29176 for biotransformation. The drug concentrations were measured before and after a 12-h incubation by liquid-chromatography-coupled mass spectrometry (LC–MS); conditions: 2 µM
[5] = The drug is tested on Anaerotruncus colihominis strain: DSM17241 for biotransformation. The drug concentrations were measured before and after a 12-h incubation by liquid-chromatography-coupled mass spectrometry (LC–MS); conditions: 2 µM
[6] = parabacteroides distasonis, 12 h, 2 µM
Description: The drug is tested on Parabacteroides distasonis strain: ATCC8503 for biotransformation. The drug concentrations were measured before and after a 12-h incubation by liquid-chromatography-coupled mass spectrometry (LC–MS)

[7] = bacteroides thetaiotaomicron, 12 h, 2 µM
Description: The drug is tested on Bacteroides thetaiotaomicron strain: 7330 for biotransformation. The drug concentrations were measured before and after a 12-h incubation by liquid-chromatography-coupled mass spectrometry (LC–MS)

[8] = The drug is tested on Bacteroides caccae strain: ATCC43185 for biotransformation. The drug concentrations were measured before and after a 12-h incubation by liquid-chromatography-coupled mass spectrometry (LC–MS); conditions: 2 µM
[9] = The drug is tested on Bacteroides fragilis strain: ATCC43859 for biotransformation. The drug concentrations were measured before and after a 12-h incubation by liquid-chromatography-coupled mass spectrometry (LC–MS); conditions: 2 µM
[10] = bacteroides fragilis, 12 h, 2 µM
Description: The drug is tested on Bacteroides fragilis strain: 3397 (T10) for biotransformation. The drug concentrations were measured before and after a 12-h incubation by liquid-chromatography-coupled mass spectrometry (LC–MS)

[11] = The drug is tested on Clostridium sp. strain: fecal isolate for biotransformation. The drug concentrations were measured before and after a 12-h incubation by liquid-chromatography-coupled mass spectrometry (LC–MS); conditions: 2 µM
[12] = The drug is tested on Bifidobacterium longum subsp. Infantis strain: CCUG52486 for biotransformation. The drug concentrations were measured before and after a 12-h incubation by liquid-chromatography-coupled mass spectrometry (LC–MS); conditions: 2 µM
[13] = bacteroides fragilis, 12 h, 2 µM; remark: listed apart in the source
Description: The drug is tested on Bacteroides fragilis strain: DS-208 for biotransformation. The drug concentrations were measured before and after a 12-h incubation by liquid-chromatography-coupled mass spectrometry (LC–MS)

[14] = The drug is tested on Bacteroides pectinophilus strain: ATCC43243 for biotransformation. The drug concentrations were measured before and after a 12-h incubation by liquid-chromatography-coupled mass spectrometry (LC–MS); conditions: 2 µM
[15] = The drug is tested on Ruminococcus torques strain: ATCC27756 for biotransformation. The drug concentrations were measured before and after a 12-h incubation by liquid-chromatography-coupled mass spectrometry (LC–MS); type: ADME; design: dose 2 uM, timepoint 0 vs 12 hours; conditions: 2 µM
[16] = bacteroides eggerthii, 12 h, 2 µM
Description: The drug is tested on Bacteroides eggerthii strain: DSM20697 for biotransformation. The drug concentrations were measured before and after a 12-h incubation by liquid-chromatography-coupled mass spectrometry (LC–MS)

[17] = The drug is tested on Providencia rettgeri strain: DSM1131 for biotransformation. The drug concentrations were measured before and after a 12-h incubation by liquid-chromatography-coupled mass spectrometry (LC–MS); type: ADME; design: dose 2 uM, timepoint 0 vs 12 hours; conditions: 2 µM
[18] = The drug is tested on Bacteroides coprophilus strain: DSM18228 for biotransformation. The drug concentrations were measured before and after a 12-h incubation by liquid-chromatography-coupled mass spectrometry (LC–MS); conditions: 2 µM
[19] = The drug is tested on Bacteroides fragilis strain: HMW610 for biotransformation. The drug concentrations were measured before and after a 12-h incubation by liquid-chromatography-coupled mass spectrometry (LC–MS); conditions: 2 µM
[20] = The drug is tested on Bifidobacterium breve strain: DSM20213 for biotransformation. The drug concentrations were measured before and after a 12-h incubation by liquid-chromatography-coupled mass spectrometry (LC–MS); conditions: 2 µM

Compound | Bacterial Biotransformation [1] | Bacterial Biotransformation [2] | Bacterial Biotransformation [3] | Bacterial Biotransformation [4] | Bacterial Biotransformation [5] | Bacterial Biotransformation [6] | Bacterial Biotransformation [7] | Bacterial Biotransformation [8] | Bacterial Biotransformation [9] | Bacterial Biotransformation [10] | Bacterial Biotransformation [11] | Bacterial Biotransformation [12] | Bacterial Biotransformation [13] | Bacterial Biotransformation [14] | Bacterial Biotransformation [15] | Bacterial Biotransformation [16] | Bacterial Biotransformation [17] | Bacterial Biotransformation [18] | Bacterial Biotransformation [19] | Bacterial Biotransformation [20]
CCC(COC(=O)c1cc(OC)c(OC)c(OC)c1)(c1ccccc1)N(C)C.O=C(O)/C=C\C(=O)O (stereo unspecified) | Compound metabolized | Compound metabolized | Compound metabolized | Compound metabolized | Compound metabolized | Compound metabolized | Compound metabolized | Compound NOT metabolized | Compound NOT metabolized | Compound metabolized | Compound metabolized | Compound metabolized | Compound NOT metabolized | Compound metabolized | Compound metabolized | Compound NOT metabolized | Compound NOT metabolized | Compound metabolized | Compound NOT metabolized | 
O=C(NCc1ccccc1)OCCO [BURAMATE] | Compound NOT metabolized | Compound NOT metabolized | Compound NOT metabolized | Compound NOT metabolized | Compound NOT metabolized | Compound NOT metabolized | Compound NOT metabolized | Compound NOT metabolized | Compound NOT metabolized | Compound NOT metabolized | Compound NOT metabolized | Compound NOT metabolized | Compound NOT metabolized | Compound NOT metabolized | Compound NOT metabolized | Compound NOT metabolized | Compound NOT metabolized | Compound NOT metabolized | Compound NOT metabolized | 
CCCCC1=NC2(CCCC2)C(=O)N1Cc1ccc(-c2ccccc2-c2nnn[nH]2)cc1 [IRBESARTAN] | Compound metabolized | Compound metabolized | Compound metabolized | Compound metabolized | Compound metabolized | Compound metabolized | Compound metabolized | Compound NOT metabolized | Compound metabolized |  | Compound metabolized | Compound metabolized | Compound metabolized | Compound metabolized | Compound metabolized |  | Compound metabolized | Compound NOT metabolized | Compound metabolized | 
NC(CO)(CO)CO.O=C(c1ccccc1)c1ccc2n1CCC2C(=O)O (stereo unspecified) [KETOROLAC TROMETHAMINE] |  | Compound NOT metabolized | Compound NOT metabolized | Compound NOT metabolized | Compound NOT metabolized |  |  | Compound NOT metabolized | Compound metabolized |  | Compound metabolized | Compound NOT metabolized | Compound metabolized | Compound NOT metabolized |  | Compound NOT metabolized | Compound NOT metabolized |  | Compound metabolized | 
O=C1CC[C@@H](C(=O)N2CSC[C@H]2C(=O)O)N1 [PIDOTIMOD] ([pGlu]-[Thz]-OH) |  | Compound NOT metabolized | Compound metabolized | Compound NOT metabolized | Compound NOT metabolized | Compound metabolized | Compound metabolized |  | Compound metabolized | Compound metabolized | Compound metabolized | Compound NOT metabolized | Compound metabolized | Compound NOT metabolized | Compound NOT metabolized | Compound NOT metabolized | Compound NOT metabolized | Compound metabolized | Compound metabolized | Compound NOT metabolized
CNNCc1ccc(C(=O)NC(C)C)cc1 [PROCARBAZINE] | Compound NOT metabolized | Compound NOT metabolized | Compound metabolized | Compound NOT metabolized | Compound NOT metabolized | Compound NOT metabolized | Compound NOT metabolized | Compound NOT metabolized | Compound metabolized | Compound NOT metabolized | Compound NOT metabolized | Compound NOT metabolized |  | Compound NOT metabolized | Compound NOT metabolized |  | Compound NOT metabolized | Compound NOT metabolized | Compound metabolized | Compound NOT metabolized
CCN(C)C(=O)Oc1cccc([C@H](C)N(C)C)c1.O=C(O)C(O)C(O)C(=O)O [RIVASTIGMINE TARTRATE] | Compound NOT metabolized | Compound NOT metabolized | Compound NOT metabolized | Compound NOT metabolized | Compound NOT metabolized | Compound NOT metabolized |  | Compound NOT metabolized | Compound NOT metabolized | Compound NOT metabolized | Compound NOT metabolized | Compound NOT metabolized | Compound NOT metabolized | Compound NOT metabolized | Compound NOT metabolized | Compound NOT metabolized | Compound NOT metabolized |  | Compound NOT metabolized | Compound NOT metabolized
CC(CN(C)C)CN1c2ccccc2CCc2ccccc21.O=C(O)/C=C\C(=O)O (stereo unspecified) [TRIMIPRAMINE MALEATE] | Compound NOT metabolized | Compound NOT metabolized | Compound NOT metabolized | Compound NOT metabolized | Compound NOT metabolized | Compound NOT metabolized | Compound NOT metabolized | Compound NOT metabolized | Compound NOT metabolized | Compound NOT metabolized | Compound NOT metabolized | Compound NOT metabolized | Compound NOT metabolized | Compound NOT metabolized | Compound NOT metabolized | Compound NOT metabolized | Compound NOT metabolized |  | Compound NOT metabolized | Compound NOT metabolized
